pIC50: −log10 of the molar value. Activity calls are given as the source filed them. The rule behind the calls is not given here.
Biological target: glucose-6-phosphate dehydrogenase-6-phosphogluconolactonase (Plasmodium falciparum 3D7)
Assay: concentration-dependent PfGluPho enzyme inhibition – biochemical, fluorescence intensity, dose response (AID 504765)
Conditions: Recombinant PfG6PD enzyme, fluorescence intensity (NADPH)

SMILES | pIC50 | IC50
CCOC(=O)C1CCCN(C(=O)Cn2sc3nc(C)cc(C)c3c2=O)C1 (stereo unspecified) | 5.50 | –
O=C(Sc1n[nH]c(=O)[nH]c1=O)c1ccccc1 | 5.48 | –
O=C(CCSCCC(=O)NN=Cc1ccccc1)NN=Cc1ccccc1 | 5.11 | –
O=c1c2cc(F)ccc2sn1-c1ccc(F)cc1 | 5.65 | –
CN1/C(=C\C(=O)c2cccs2)Sc2ccccc21 | 5.13 | –
COc1ccc(CNC(=O)Cc2cn(C)c3ccccc23)c(OC)c1 | 5.17 | –
O=C(NCCCN1CCOCC1)c1sc2cc([N+](=O)[O-])ccc2c1Cl | 5.17 | –
Cc1cc(C)nc(/N=C(\N)Nc2ccccc2-c2ccccc2)n1 | 5.09 | –
CN1CCc2cccc3c2[C@H]1Cc1ccc(O)c(O)c1-3 | 5.08 | –
Cn1c(=O)c2c([nH]c(=S)n2CCCc2ccccc2)n(C)c1=O | 4.71 | –
Oc1ccc(C2C[C@H]3CC[C@@H]2C3)cc1O (stereo partly specified) | 5.24 | –
O=C(O)c1cccc(N2C(=O)C=CC2=O)c1 | 4.81 | –
COc1cc(/C=C2\SC(c3ccc(C)cc3)=NC2=O)cc(OC)c1O | 5.03 | –
O=C(O)c1cc(N2C(=O)C=CC2=O)cc(N2C(=O)C=CC2=O)c1 | 5.36 | –
O=C(O)C(Cc1ccccc1)N1C(=O)C=CC1=O (stereo unspecified) | 5.22 | –
Cc1cc(C)c[n+](C2=C([O-])c3ccccc3C(=O)/C2=N\S(=O)(=O)c2cccs2)c1 | 4.82 | –
Cc1nc2ccccn2c1-c1ccnn1S(=O)(=O)c1ccc(F)cc1 | 4.82 | –
Cc1cccc(C2(c3cccc(C)c3)CC2C(=O)Nc2ccc([N+](=O)[O-])cc2O)c1 (stereo unspecified) | 4.88 | –
CCn1c(=O)n(CC)c2cc(N3CCCC3)c(NC(=O)c3cccc(C)c3)cc21 | – | inactive
O=C(Cn1sc2ccccc2c1=O)Nc1ccccc1 | 5.71 | –
C=C1C(=O)O[C@@H]2C[C@@H](C)[C@@H]3C=CC(=O)[C@@]3(C)[C@@H](OC(=O)CC(=O)O[C@H]3[C@@H]4C(=C)C(=O)O[C@@H]4C[C@@H](C)[C@@H]4C=CC(=O)[C@]43C)[C@H]12 | 4.88 | –
Cc1ccc(-n2sc3cc(F)ccc3c2=O)c(C)c1 | 5.84 | –
COc1cc(N=c2ssnc2Cl)cc(OC)c1 | 4.88 | –
Cc1ccc(NS(=O)(=O)c2ccccc2Cl)c2c1CC(C)(C)O2 | 5.09 | –

SMILES | pIC50 | IC50
O=S(c1ccccc1O)S(=O)c1ccccc1O (stereo unspecified) | 5.31 | –
CCC1(C)CC(C(N)=S)CCO1 (stereo unspecified) | – | inactive
COC(=O)[C@H](CCSC)NC(=O)c1cc2c(cn1)[nH]c1ccccc12 | – | inactive
COC(=O)CCC(=O)OC1(C)C(=O)C2=CN(c3ccccc3)C(c3ccc(OC)cc3)=CC2=C(Br)C1=O (stereo unspecified) | 5.50 | –
Cc1ccc(S(=O)(=O)C=CS(=O)(=O)c2ccc(C)cc2)cc1 | 5.18 | –
O=c1[nH]c2ccccc2n2c(-c3ccccc3)nnc12 | 5.78 | –
NC1CCc2cc(O)c(O)cc2C1 (stereo unspecified) | – | inactive
CC1=C(C)CS(=O)N(S(=O)(=O)c2ccc(Cl)cc2)C1 (stereo unspecified) | – | inactive
CCN1CCN(C(=S)c2ccc(Cl)c(Cl)c2)CC1 | – | inactive
O=C(Nc1nnc(S(=O)(=O)N2CCCCC2)s1)c1cccc(Br)c1 | 5.20 | –
C=CCc1ccccc1OCC(=O)N/N=C/c1ccccc1OCC | 5.20 | –
CCn1c(N)c(C(=O)NC)sc1=S | – | inactive
O=C(Nc1ccc(N2CCCC2)cc1)c1cccc(-c2cc3ccccc3oc2=O)c1 | – | inactive
CN(C)c1cccc2c1c(NC(=O)c1ccc(F)cc1)nn2C | 4.72 | –
CN(C)Cc1cc(O)c(CN(C)C)cc1O | 5.69 | –
Cc1ccc(CNc2ccc(O)cc2)cc1 | 5.06 | –
Cc1ccc(-c2nc(N)s[n+]2-c2ccccc2)cc1 | 5.04 | –
COc1ccccc1N1CSC2=C(C#N)C(c3ccc(SC)cc3)CC(=O)N2C1 (stereo unspecified) | 4.97 | –
Cc1cc(C)c2c(=O)n(CC(=O)Nc3cccc(Cl)c3C)sc2n1 | 5.26 | –
O=S(=O)(Nc1c(O)ccc2ccccc12)c1ccccc1 | 5.35 | –
Cc1cc(O)c(C(C)C)cc1N=Cc1ccc(N(C)C)cc1 | 5.36 | –
O=C(CSc1nc2cc(Cl)ccc2s1)c1ccco1 | 5.22 | –
NCCNc1ccc(C(=O)N2c3ccccc3Sc3ccccc32)cc1[N+](=O)[O-] | 4.88 | –
CC(C)c1nnc(NC(=O)c2sc3ccccc3c2Cl)s1 | 5.19 | –

SMILES | pIC50 | IC50
O=c1c2ccccc2sn1-c1ccccc1F | 5.19 | –
CCSc1nc2cc(S(=O)(=O)N3CCOCC3)ccc2o1 | – | inactive
O=C(O)CSc1cc(NS(=O)(=O)c2ccc(Cl)cc2)c2ccccc2c1O | 5.38 | –
CNS(=O)(=O)c1ccc(-c2ccc(C=C3C(=O)NC(=O)NC3=O)o2)cc1 | 5.06 | –
CCC1(CC)Cc2ccccc2C(N)=C1C#N | – | inactive
COc1ccc(N2C(=O)/C(=C/c3cccs3)NC2=S)cc1 | – | inactive
O=C1C=CC(=O)N1c1ccc(-c2nc3ccccc3o2)cc1 | 4.90 | –
Cc1ccc(/C=C2\C(=O)NC(=S)N(c3ccccc3F)C2=O)s1 | – | inactive
Cc1cccc(NC2=C(NC(=O)c3ccccc3)C(=O)c3ccccc3C2=O)c1 | 4.97 | –
Oc1ccc(-c2cn3c(n2)SCC3)cc1O | 4.94 | –
COc1ccc(C(=O)ON=C2C=C(C)C(=O)C(C)=C2)cc1 | – | inactive
O=C1C=CC(=O)N1CCNc1ncc(C(F)(F)F)cc1Cl | 4.70 | –
O=C(COC(=O)c1ccc2c(c1[N+](=O)[O-])C(=O)c1ccccc1C2=O)NC1CC1 | 4.79 | –
COc1ccc(C(=O)/C=C2\Sc3ccccc3N2C)cc1 | 5.10 | –
COc1cc(NCCCn2cnc(C(=O)Nc3ccc(C)c(C)c3)n2)cc(OC)c1OC | – | > 80 µM (inactive)
Cc1ccc(/C=C/C(=O)NCC2COc3ccccc3O2)o1 (stereo unspecified) | 5.44 | –
Cc1cc(C(=O)O)ccc1-n1c(C)cc(C=C2C(=O)c3ccccc3C2=O)c1C | 5.15 | –
c1cc(CNc2ccc3c(c2)OCO3)ccn1 | – | inactive
COc1cc(/C=C2\SC(c3ccc(C)cc3)=NC2=O)ccc1O | 5.06 | –
COc1ccc(C(=O)c2c(C(F)(F)F)oc3c2C(=O)c2ccccc2C3=O)cc1OC | – | inactive
NS(=O)(=O)c1ccc(-c2ccc(C=C3C(=O)NC(=O)NC3=O)o2)cc1 | 5.50 | –
Cc1ccc2nc3sc(C(=O)N4CCOCC4)c(N)c3cc2c1 | 4.89 | –
COc1cc(CN2CCN(CCCc3ccccc3)C(CCO)C2)cc(OC)c1O (stereo unspecified) | 5.11 | –
O=c1c2ccccc2sn1-c1ccc(Cl)cc1Cl | 5.40 | –

SMILES | pIC50 | IC50
Cc1noc(C(=O)Nc2sc3c(c2C#N)CCC3)c1Cl | 5.32 | –
CCOc1cc(NCc2ccccc2)c2ncn(C(C)C)c2c1 | – | > 80 µM (inactive)
COc1cc(NCc2ccccc2)c2ncn(C(C)C)c2c1 | – | inactive
CCNc1cc2c(cc1O)CCC1C2CCC2(C)C(O)CCC12 (stereo unspecified) | – | inactive
CC1=CC(=NOC(=O)/C=C/c2ccccc2)C=C(C)C1=O | 4.86 | –
Cc1ccc(S(=O)(=O)SCCCSS(=O)(=O)c2ccc(C)cc2)cc1 | 5.33 | –
CN(C)c1ccc(Cc2cc3c(O)ccc(O)c3cc(Cc3ccc(N(C)C)cc3)c2=O)cc1 | 5.69 | –
O=C(CBr)c1ccc([N+](=O)[O-])c(CS(=O)(=O)c2ccc(Cl)cc2)c1 | 4.98 | –
O=C(Nc1ccccn1)c1sc2cc([N+](=O)[O-])ccc2c1Cl | – | inactive
Cn1c(=O)c2[nH]c(-c3ccccc3)c(O)c2n(C)c1=O | 5.02 | –
C[C@H](NC(N)=O)C(=O)Nc1ccc(N2CCOCC2)c(S(=O)(=O)Nc2ccc(Cl)cc2)c1 | – | inactive
Cc1ccc(/C=C/C(=O)Nc2ccc([N+](=O)[O-])c(NC(=O)/C=C/c3ccc(C)o3)c2)o1 | 5.32 | –
CCOC(=O)Cc1csc(-n2sc3ccccc3c2=O)n1 | 5.55 | –
CC(CNc1ccccc1O)C(=O)O (stereo unspecified) | 5.21 | –
COc1cc(NCc2ccccc2O)c2ncccc2c1 | – | inactive
CCCCCCCCSC1=CC(=O)C(OC)=C(OC)C1=O | 5.77 | –
Cc1cccc(OCC(=O)NCC(=O)N/N=C/c2ccccc2)c1 | 5.03 | –
CC1COCC(C)N1C1=C(Cl)C(=O)c2ccccc2C1=O (stereo unspecified) | 5.14 | –
CCOc1ccccc1CNc1ccc(O)cc1 | 4.72 | –
COc1ccc(Cl)cc1NC(=O)c1cccc([N+](=O)[O-])c1O | 5.05 | –
CCC(C)(C)c1nnc(NC(=O)C2CCN(C(=O)c3ccco3)CC2)s1 | – | inactive
Oc1ccc(NCc2ccccc2OCc2ccccc2)cc1 | – | inactive
Clc1cccc(Cl)c1CNc1ccc(N2CCCC2)cc1 | 5.42 | –
Cc1ccc(NC(=O)c2ccc(Cl)c(N3C(=O)C=CC3=O)c2)cc1 | 5.12 | –

SMILES | pIC50 | IC50
C[C@]12CC[C@@H]3c4cc(O)c(O)cc4CC[C@H]3[C@@H]1CC[C@@H]2O | – | inactive
Cc1ccc(-n2c(N)c(C(=O)N3CCN(C)CC3)sc2=S)cc1 | 4.80 | –
CCn1c([N+](=O)[O-])nc2c1c(=O)[nH]c(=O)n2C | 4.91 | –
Cc1ccc(S(=O)(=O)Nc2nc(C)c(C(=O)N/N=C/c3ccccc3)s2)cc1 | 5.34 | –
COc1ccc(C(=O)Nc2cc(Cl)ccc2C(=O)O)cc1 | 4.82 | –
CC(C)c1nnc(NC(=O)c2cc3ccccc3o2)s1 | 4.78 | –
CC(=O)Nc1cc([N+](=O)[O-])ccc1OCc1ccccc1 | 4.70 | –
Cc1nc2ccc(Nc3nc4cc(S(=O)(=O)N5CCOCC5)ccc4o3)cc2s1 | – | inactive
Oc1ccc(C23CC4CC(CC(C4)C2)C3)cc1O | – | inactive
COc1ccc(S(=O)(=O)/N=C2\C=C(Nc3ccc(O)cc3)C(=O)c3ccccc32)cc1 | – | inactive
Nc1c(C(=O)Nc2ccc(F)cc2)sc(=S)n1-c1ccccc1F | 5.08 | –
COC1=C(OC)C(=O)C(Sc2ccc3ccccc3c2)=CC1=O | 6.11 | –
CC1=C(O)C(=O)C=C2C1=CC=C1C2(C)CCC2(C)C3CC(C)(C(=O)O)CCC3(C)CCC12C (stereo unspecified) | 4.78 | –
CCOC(=O)Cc1cc(=O)n2[nH]c(C(C)(C)C)cc2n1 | 5.15 | –
CC(=O)c1cccc(NC(=O)c2cnn(-c3ccccc3)c2C)c1 | 5.07 | –
Cc1ccc2nc(-c3ccc(NC(=S)NC4CC(C)(C)NC(C)(C)C4)cc3)sc2c1 | 5.62 | –
CCS(=O)(=O)N1CCN(c2ccc([N+](=O)[O-])c(NC(C)c3ccccc3)c2)CC1 (stereo unspecified) | 4.83 | –
CCn1c2ccccc2c2cc(/C=N/n3cn[nH]c3=S)ccc21 | 5.01 | –
O=C(N/N=C/c1cccc([N+](=O)[O-])c1)C(=O)N1CCCCCC1 | 5.26 | –
CC(SCC(=O)Nc1ccccc1)c1nc2ccccc2c(=O)[nH]1 (stereo unspecified) | 5.28 | –

Source: PubChem BioAssay AID504765 (Sanford-Burnham Center for Chemical Genomics, 2011)
